From PubChem BioAssay (NCI)
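Test compounds were applied to cells in 96-well plates for 48 hours at 5 doses. The concentration for full growth arrest is given as TGI.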

Legend:
Assay in all cases: DTP human tumour cell line panel, 48 h
[1] = system: SK-MEL-28 melanoma
[2] = system: 786-0 renal
[3] = system: OVCAR-3 ovarian
[4] = system: UO-31 renal
[5] = system: NCI/ADR-RES ovarian
[6] = system: SR leukemia
[7] = system: CCRF-CEM leukemia
[8] = system: HCT-15 colon
[9] = system: SNB-19 CNS
[10] = system: HT29 colon

Row | SMILES | TGI [1] [µM] | TGI [2] [µM] | TGI [3] [µM] | TGI [4] [µM] | TGI [5] [µM] | TGI [6] [µM] | TGI [7] [µM] | TGI [8] [µM] | TGI [9] [µM] | TGI [10] [µM]
1 | COc1cccc(O)c1-c1cc(=O)c2c(O)c(OC)c(OC)c(OC)c2o1 | > 100 | > 100 | 66.3 | > 100 | 71.7 | 40.1 | > 100 | > 100 | > 100 | 91
2 | CC(=O)OCC1OC(NC(=S)Nn2c(-c3ccccc3)nc3ccccc3c2=O)C(OC(C)=O)C(OC(C)=O)C1OC(C)=O (stereo not given) | > 100 | > 100 | > 100 | > 100 | > 100 | 88.7 | > 100 | > 100 | > 100 | > 100
3 | C(#C[C@@]12CCC[C@@H]1NCO2)c1ccc2c(c1)OCO2 | > 100 | > 100 | > 100 | > 100 | > 100 | > 100 | > 100 | > 100 | > 100 | > 100
4 | Cc1nnc(NS(=O)(=O)c2ccc(N=Nc3c(O)c(C(=O)O)cc4ccccc34)cc2)s1 | > 100 | > 100 | > 100 | > 100 | > 100 | > 100 | > 100 | > 100 | > 100 | > 100
5 | NCCCc1nonc1C(=O)O | > 100 | > 100 | > 100 | > 100 | > 100 | > 100 | > 100 | > 100 | > 100 | > 100
6 | COC(=O)c1c(C(=O)OC)c2ccccn2c1-c1cc(C)cc2c1C(=O)C=CC2=O | 17.9 | 11.3 | 15.6 | 6.05 | 27.8 | 8.53 | 3.65 | 15.6 | 18.6 | 16.6
7 | O=C1C(CN2CCCC2)CCC1CN1CCCC1 (stereo not given) | 33.9 | 29.8 | 32.1 | 32.1 | 56.8 | > 100 | > 60.1 | 31.8 | > 100 | 40.7
8 | COc1ccc(Cc2nc3cc(C(F)(F)F)ccc3n2C[C@@H]2CCCN3CCCCC23)cc1 (stereo not given in full) | 27.6 | 20.3 | 12.8 | 0.166 | 30.7 | > 100 | > 44.5 | 30.8 | 27.4 | 15.4
9 | O=C(c1ccccc1)N1N=C(C(F)(F)F)CC1(O)C(F)(F)F (stereo not given) | > 100 | > 100 | > 100 | > 100 | > 100 | > 100 | > 100 | > 100 | > 100 | > 100
10 | CC(C)CCNC(=O)c1ccc(CNC(=O)/C=C/c2ccc3c(c2)-c2ccccc2C3)cc1 | > 100 | 81.1 | > 100 | > 100 | > 100 | > 100 | > 100 | > 100 | > 100 | > 100
11 | Cn1c2ccccc2n2c3ccccc3c3nnc(N)c-3c12 | > 100 | 49.8 | > 100 | > 100 | > 100 | > 100 | > 100 | > 100 | 25.5 | > 100
12 | O=C(O)CN1CCN2CCOCCN(CC1)CCN(CC(=O)O)CC2 | > 100 | > 100 | > 100 | > 100 | > 100 | > 100 | > 100 | > 100 | > 100 | > 100
13 | COC(=O)[C@]1(CCC(C)=O)C(=O)C=CN([C@H](C)c2ccccc2)[C@@H]1Cc1ccc(OC)c(OCc2ccccc2)c1I | > 100 | 34.9 | 31 | 31.6 | 62.8 | > 100 | > 100 | 43.5 | 81.8 | 31.8
